{"source": "patent US20230212131A1", "about": "“COLLAGEN 1 TRANSLATION INHIBITORS AND METHODS OF USE THEREOF” (Anima Biotech Inc., priority 2020, published 2023)", "key": {"collagen 1 (COL1)": {"system": "collagen 1 (COL1)", "assay": "WI-38 collagen 1 inhibition assay", "format": "cell-based, human", "conditions": "Cellular EC50, WI-38 cells; values are classes of LogEC50", "procedure,_shortened": "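WI-38 fibroblasts serum-starved (0.25% FBS 2 h, then none 24 h), then given a collagen induction cocktail together with compound. Cells fixed, immunostained for collagen I with DAPI counterstain, and imaged at 20×; per-cell fluorescence quantified by image analysis.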"}, "Collagen translation": {"system": "Collagen translation", "assay": "Tissue selectivity of collagen translation modulator (FIG. 3)", "format": "cell-based", "procedure": "Primary human pulmonary fibroblasts (HPF, PromoCell C-12360) were maintained in fibroblast growth medium 2 (PromoCell C-23020) according to manufacture instruction. Collagen synthesis was inducted using the same cocktail as for the WI-38 cells.\nPrimary human dermal fibroblasts (HDF) (PromoCell C-12302) were maintained in PromoCell's proprietary Fibroblast Growth Medium 2 (ready-to-use, Cat. C-23020). For collagen synthesis induction, cells were seeded on experimental plates for 24 hours followed by addition of collagen induction cocktail. Tested compounds were added together with induction."}, "Collagen type-I": {"system": "Collagen type-I", "assay": "Collagen type-I immunofluorescence and Col-I mRNA FISH in WI-38 Human Lung Fibroblasts (FIG. 4)", "format": "cell-based", "conditions": "96 hours incubation (immunofluorescence), 24 hours incubation (FISH of Col-I mRNA)", "procedure": "FIG. 4A: WI-38 Human Lung Fibroblasts, 96 hours incubation with compounds. White: Collagen type-I; Gray: DAPI. Immunofluorescence. FIG. 4B: WI-38 Human Lung Fibroblasts, 24 hours incubation with compounds. FISH analysis. White: Col-I mRNA; Gray: DAPI.\nCells in 96-well or 384-well plates were fixed for 20 min in 4% paraformaldehyde (PFA, ENCO, Cat. sc-281692). Following two washes with 1×PBS, cells were treated with hydrogen peroxide (Acros, Cat: 7722-84-1) for 10 minutes and then washed twice with 1×PBS. Cells were then incubated over-night at 4° C. with Anti-Collagen I (Sigma-Aldrich, Cat: C 2456) antibody and washed three times with 1×PBS. […]\nCell images were taken with Operetta (Perkin Elmer, USA), a wide-field fluorescence microscope at 20× magnification. […] In Columbus, cells were identified by their nucleus, using the “Find Nuceli” module and cytoplasm was detected based on the secondary antibody channel. […]\nFollowing RNA FISH experiments, images of cells were taken with Operetta (Perkin Elmer, USA), a wide-field fluorescence microscope at 20× magnification. […] In Columbus, cells were identified by their nucleus, using the “Find Nuceli” module, cytoplasm was detected based on the FISH-channel, and single mRNAs in the cytoplasm and transcription sites in the nucleus were detected using “Find Spots” module. […]"}}, "data": [{"molecule": "O=C(Nc1nc(-c2ccccc2Cl)cs1)c1ccc(N2CCOCC2)cc1", "note": "[compound 327, N-[4-(2-chlorophenyl)thiazol-2-yl]-4-morpholino-benzamide]", "values": [{"measurement": "COL1 Efficacy (LogEC50)", "setting": "collagen 1 (COL1)", "value": "+++ (+++: <−6)"}, {"measurement": "tissue selectivity", "setting": "Collagen translation", "value": "tissue selective"}, {"measurement": "level of action on collagen synthesis", "setting": "Collagen type-I", "value": "act at the level of translation"}]}]}
